The values below come from ChEMBL document CHEMBL5360532, “Current scenario of quinolone hybrids with potential antibacterial activity against ESKAPE pathogens” (Eur J Med Chem, 2023).

Converted amounts (≈) assume the structure as drawn. Bounds are passed on as bounds.

The test system of test [1] is Escherichia coli. The test can be described thus: Potency index, ratio of ciprofloxacin MIC to test compound MIC for antimicrobial activity against Escherichia coli assessed as bacterial growth inhibition by agar cup diffusion assay. In kind it is functional.
A further test deals with MDA-MB-231. The test can be described thus: Growth inhibition of human MDA-MB-231 cells measured after 48 hrs by SRB assay. In kind it is functional. In general terms: In SRB staining, fixed cells bind dye roughly in proportion to their protein.
The test system of a further test is SiHa. Briefly: Growth inhibition of human SiHa cells measured after 48 hrs by SRB assay. The test is classed as functional.
Test [2] concerns Pseudomonas aeruginosa. The test can be described thus: Antibacterial activity against Pseudomonas aeruginosa ATCC43288 assessed as bacterial growth inhibition measured after 18 to 24 hrs inhibition by broth microdilution assay. In kind it is functional. As to conditions: time 18-24 hrs.
Test [3] has as its system Escherichia coli. The test can be described thus: Antibacterial activity against Escherichia coli ATCC35218 assessed as bacterial growth inhibition measured after 18 to 24 hrs inhibition by broth microdilution assay. As to conditions: time 18-24 hrs. The test is classed as functional.
Test [4] relates to Pseudomonas aeruginosa. The test can be described thus: Antibacterial activity against Pseudomonas aeruginosa […] assessed as bacterial growth inhibition measured after 18 to 24 hrs inhibition by broth microdilution assay. As to conditions: time 18-24 hrs. In kind it is functional. For orientation: Broth dilution looks for growth in wells or tubes with falling amounts of substance.

In test [5] the test system is Escherichia coli. Briefly: Antibacterial activity against Escherichia coli ATCC 8739 assessed as bacterial growth inhibition measured after 18 to 24 hrs by two fold microdilution assay. In kind it is functional. To be noted: time 18-24 hrs.
Test [6] has as its system Klebsiella pneumoniae. The test can be described thus: Antibacterial activity against Klebsiella pneumoniae ATCC 13883 assessed as bacterial growth inhibition measured after 18 to 24 hrs by two fold microdilution assay. In kind it is functional. To be noted: time 18-24 hrs.
The subject of test [7] is Klebsiella pneumoniae. The test can be described thus: Antibacterial activity against Klebsiella pneumoniae assessed as bacterial growth inhibition by agar cup diffusion assay. In kind it is functional.
In test [8] the test system is Mycobacterium tuberculosis. The test can be described thus: Antimycobacterial activity against pan sensitive Mycobacterium tuberculosis R2012-123 assessed as bacterial growth inhibition by agar cup diffusion assay. The test is classed as functional.
In test [9] the test system is Escherichia coli. Briefly: Antibacterial activity against Escherichia coli assessed as bacterial growth inhibition by agar cup diffusion assay. In kind it is functional.
The test system of test [10] is Staphylococcus aureus. Briefly: Antibacterial activity against Staphylococcus aureus assessed as bacterial growth inhibition by agar cup diffusion assay. In kind it is functional.
Test [11] has as its system Mycobacterium tuberculosis. The test can be described thus: Antimycobacterial activity against Mycobacterium tuberculosis H37Rv assessed as bacterial growth inhibition by agar cup diffusion assay. The test is classed as functional.
The subject of test [12] is Staphylococcus aureus. The test can be described thus: Antibacterial activity against Staphylococcus aureus assessed as bacterial growth inhibition by broth microdilution assay. In kind it is functional.
The test system of test [13] is Staphylococcus aureus. The test can be described thus: Potency index, ratio of ciprofloxacin MIC to test compound MIC for antimicrobial activity against Staphylococcus aureus assessed as bacterial growth inhibition by agar cup diffusion assay. In kind it is functional.
Test [14] relates to Staphylococcus aureus. Briefly: Potency index, ratio of norfloxacin MIC to test compound MIC for antimicrobial activity against Staphylococcus aureus assessed as bacterial growth inhibition measured after 18 to 24 hrs inhibition by broth microdilution assay. The test is classed as functional. To be noted: time 18-24 hrs.
The subject of test [15] is Escherichia coli. Briefly: Antibacterial activity against Escherichia coli assessed as bacterial growth inhibition by broth microdilution assay. In kind it is functional.
The test system of test [16] is Staphylococcus aureus. The test can be described thus: Antibacterial activity against Staphylococcus aureus ATCC 29213 assessed as bacterial growth inhibition by agar dilution assay. The test is classed as functional. (In general: In agar dilution, organisms are placed on agar that contains the substance at set levels.)
Test [17] relates to Klebsiella pneumoniae. Briefly: Antibacterial activity against Klebsiella pneumoniae assessed as bacterial growth inhibition by agar dilution assay. The test is classed as functional.
A further test has as its system Acinetobacter baumannii. Briefly: Antibacterial activity against Acinetobacter baumannii assessed as bacterial growth inhibition by agar dilution assay. The test is classed as functional.
Test [18] has as its system Staphylococcus aureus. The test can be described thus: Antibacterial activity against Staphylococcus aureus assessed as bacterial growth inhibition by agar dilution assay. In kind it is functional.
In test [19] the test system is Escherichia coli. Briefly: Antibacterial activity against Escherichia coli ATCC 25922 assessed as bacterial growth inhibition by agar dilution assay. In kind it is functional.
The subject of test [20] is Staphylococcus aureus. The test can be described thus: Antibacterial activity against Staphylococcus aureus ATCC 25923 assessed as bacterial growth inhibition by agar dilution assay. In kind it is functional.
Test [21] relates to Pseudomonas aeruginosa. Briefly: Antibacterial activity against Pseudomonas aeruginosa ATCC 27853 assessed as bacterial growth inhibition by agar dilution assay. The test is classed as functional.
For test [22], the system named is Staphylococcus aureus. The test can be described thus: Antibacterial activity against methicillin resistant Staphylococcus aureus assessed as bacterial growth inhibition by agar dilution assay. The test is classed as functional.
In test [23] the test system is Escherichia coli. Briefly: Antibacterial activity against Escherichia coli ATCC 35218 assessed as bacterial growth inhibition measured after 18 to 24 hrs by two fold microdilution assay. The test is classed as functional. As to conditions: ATCC35218, time 18-24 hrs.
Test [24] deals with Klebsiella pneumoniae. The test can be described thus: Antibacterial activity against Klebsiella pneumoniae assessed as bacterial growth inhibition measured after 18 to 24 hrs by two fold microdilution assay. As to conditions: time 18-24 hrs. The test is classed as functional.
The test system of test [25] is Staphylococcus aureus. Briefly: Antibacterial activity against Staphylococcus aureus ATCC 25923 assessed as bacterial growth inhibition measured after 18 to 24 hrs by two fold microdilution assay. As to conditions: time 18-24 hrs. In kind it is functional.
In test [26] the test system is Staphylococcus aureus. The test can be described thus: Antibacterial activity against Staphylococcus aureus clinical isolate assessed as zone of inhibition at 50 mg/ml by agar diffusion assay. The test is classed as functional. To be noted: read-out: IZ.
The test system of test [27] is Escherichia coli. The test can be described thus: Antibacterial activity against Escherichia coli clinical isolate assessed as zone of inhibition at 50 mg/ml by agar diffusion assay. To be noted: read-out: IZ. The test is classed as functional.
Test [28] relates to Staphylococcus aureus. Briefly: Antibacterial activity against Staphylococcus aureus ATCC 25923 assessed as zone of inhibition at 50 mg/ml by agar diffusion assay. In kind it is functional. To be noted: read-out: IZ.
In test [29] the test system is Escherichia coli. Briefly: Antibacterial activity against Escherichia coli ATCC 25922 assessed as zone of inhibition at 50 mg/ml by agar diffusion assay. As to conditions: read-out: IZ. In kind it is functional.
Test [30] relates to Staphylococcus aureus. Briefly: Antibacterial activity against Staphylococcus aureus assessed as bacterial growth inhibition by agar well diffusion assay. The test is classed as functional, organism-based.
Test [31] relates to Pseudomonas aeruginosa. Briefly: Antibacterial activity against Pseudomonas aeruginosa assessed as bacterial growth inhibition by agar well diffusion assay. In kind it is functional, organism-based.
The subject of another test is Aspergillus niger. Briefly: Antifungal activity against Aspergillus niger assessed as fungal growth inhibition by agar well diffusion assay. The test is classed as functional.
Test [32] concerns Escherichia coli. Briefly: Antibacterial activity against Escherichia coli assessed as bacterial growth inhibition by agar well diffusion assay. The test is classed as functional, organism-based.
The test system of another test is Candida albicans. The test can be described thus: Antifungal activity against Candida albicans assessed as fungal growth inhibition by agar well diffusion assay. In kind it is functional.
Test [33] deals with Staphylococcus aureus. Briefly: Potency index, ratio of ciprofloxacin MIC to test compound MIC for antibacterial activity against Staphylococcus aureus ATCC 25923 assessed as bacterial growth inhibition measured after 18 to 24 hrs by agar dilution assay. The test is classed as functional. As to conditions: time 18-24 hrs.
Test [34] deals with Staphylococcus aureus. Briefly: Antibacterial activity against Staphylococcus aureus ATCC 25923 assessed as bacterial growth inhibition measured after 18 to 24 hrs by agar dilution assay. As to conditions: time 18-24 hrs. In kind it is functional.

For orientation: GI50 means the concentration that inhibits growth by half. A high value points to less potent growth inhibition. In the case of `O=C(O)c1cn(C2CC2)c2cc(N3CCN(C(=O)CCSc4nnnn4Cc4ccccc4)CC3)c(F)cc2c1=O`, in the test with Escherichia coli [1], the Ratio was found to be 2. The figures for the GI50 in the test with MDA-MB-231 and with SiHa were 80 nM and 70 nM, respectively.
One may read the MIC as the least concentration at which growth counts as inhibited. On to `O=C(O)c1cn(C2CC2)c2cc(N3CCN(Cn4nc(CN5CCN(c6ccc([N+](=O)[O-])cc6)CC5)oc4=S)CC3)c(F)cc2c1=O`, for which the MIC in the test with Pseudomonas aeruginosa [2], with Escherichia coli [3] and in the test with Pseudomonas aeruginosa [4] was 0.03 µg/mL (≈ 0.0451 µM) each time.
As to `O=C(O)c1cn(C2CC2)c2cc(N3CCN(Cn4nc(CN5CCN(c6ccccc6)CC5)n(-c5ccccc5)c4=S)CC3)c(F)cc2c1=O`, the MIC in the test on Escherichia coli [5] and with Klebsiella pneumoniae [6] was 0.125 µg/mL (≈ 0.18 µM) throughout.
In the case of `CCn1c(CN2CCN(c3ccccc3)CC2)nn(CN2CCN(c3cc4c(cc3F)c(=O)c(C(=O)O)cn4C3CC3)CC2)c1=S`, the minimum inhibitory concentration (MIC) in the test with Escherichia coli [5] and in the test with Klebsiella pneumoniae [6] was 0.125 µg/mL (≈ 0.193 µM) each time.
As for `C=CCn1c(SCC(=O)N2CCN(c3cc4c(cc3F)c(=O)c(C(=O)O)cn4C3CC3)CC2)nnc1-c1ccccc1`, the MIC with Klebsiella pneumoniae [7] turned out to be 1.7 µg/mL (≈ 2.89 µM); in test [8] it was 4 µg/mL (≈ 6.8 µM); in the test with Escherichia coli [9], 1.7 µg/mL (≈ 2.89 µM); in the test on Staphylococcus aureus [10], 1.7 µg/mL (≈ 2.89 µM); in test [11] it was 4 µg/mL (≈ 6.8 µM).
On to `O=C(O)c1cn(C2CC2)c2cc(N3CCN(Cc4nnc(-c5cccc(O)c5)o4)CC3)c(F)cc2c1=O`, for which the MIC in the test with Staphylococcus aureus [12] is 0.125 µg/mL (≈ 0.247 µM); in the test on Staphylococcus aureus [10] it was 0.3 µg/mL (≈ 0.593 µM); in the test with Escherichia coli [15], ≤ 0.125 µg/mL. Further, the Ratio entry in the test with Staphylococcus aureus [13] and in the test on Staphylococcus aureus [14] was “>=4” throughout.
On to `CCOC(=O)c1cn(Cc2nc3ccccc3n2Cc2ccc(Cl)cc2Cl)c2cc(Cl)c(F)cc2c1=O`, for which the MIC turned out to be 1 µg/mL (≈ 1.79 µM) in the test on Staphylococcus aureus [16]; 1 µg/mL (≈ 1.79 µM) in the test with Klebsiella pneumoniae [17]; 4 µg/mL (≈ 7.16 µM) with Acinetobacter baumannii; 4 µg/mL (≈ 7.16 µM) in the test with Staphylococcus aureus [18]; 1 µg/mL (≈ 1.79 µM) in the test on Escherichia coli [19]; 1 µg/mL (≈ 1.79 µM) with Staphylococcus aureus [20]. For the same compound, the MIC with Pseudomonas aeruginosa [21] and with Staphylococcus aureus [22] was 4 µg/mL (≈ 7.16 µM) throughout.
For the compound `O=C(O)c1cn(C2CC2)c2cc(N3CCN(Cn4nc(CN5CCN(c6ccc(F)cc6)CC5)n(-c5ccccc5)c4=O)CC3)c(F)cc2c1=O`, the MIC in the test with Escherichia coli [23], in the test with Klebsiella pneumoniae [24] and in the test on Staphylococcus aureus [25] was < 0.24 µg/mL throughout.
For `COC(=O)c1cn(C2CC2)c2cc(N3CCN(C(=O)c4nnn(-c5ccc(SC)cc5)c4N)CC3)c(F)cc2c1=O`, the zone of inhibition at 50000 µg/mL in the test on Staphylococcus aureus [26], with Escherichia coli [27], in the test with Staphylococcus aureus [28] and in the test on Escherichia coli [29] was 26.3 mm each time.
`C#CCSc1nnc(-c2cn(CC)c3cc(N4CCN(C(=O)C(O)(CC(=O)O)CC(=O)O)CC4)c(F)cc3c2=O)o1`: the MIC with Staphylococcus aureus [30] is 1.61 µg/mL (≈ 2.74 µM); in the test with Pseudomonas aeruginosa [31], 1.61 µg/mL (≈ 2.74 µM); in the test with Aspergillus niger, 1.47 µg/mL (≈ 2.5 µM); with Escherichia coli [32], 1.61 µg/mL (≈ 2.74 µM); with Candida albicans it was 2.18 µg/mL (≈ 3.71 µM).
Regarding `COC(=O)c1cn(C2CC2)c2cc(N3CCN(Cc4cn(-c5ccc(C(C)=O)cc5)nn4)CC3)c(F)cc2c1=O`, the Ratio in the test with Staphylococcus aureus [33] worked out at 2. In addition, the MIC with Staphylococcus aureus [34] is 3.12 µg/mL (≈ 5.73 µM).
